US10093630B2, “Pyrazole compounds and methods of making and using same” (ABIDE THERAPEUTICS, INC., priority 2014, dated 2018)
Read-outs that look alike come from different tables or passages of the source.

Experiments:
Assay in all cases: In vitro competitive activity-based protein profiling (gel-based, FP-Rh or HT-01 probe)
Format in all cases: biochemical
ABHD6 = molecular target: T1, ABHD6 (Mus musculus, UniProt Q8R2Y0); conditions: for inhibition at 1 µM: 1 μM inhibitor, read-out: % Inhibition at 1 μM, C = ABHD6; for inhibition at 10 µM: 10 μM inhibitor, read-out: % Inhibition at 10 μM, C = ABHD6; for IC50: mouse brain membrane fraction or cell lysates, 30 min preincubation at 37° C., read-out: Mouse (IC50 value, nM) ABHD6
T1 construct: Proteomes (mouse brain membrane fraction or cell lysates); from tissue; host or cells: mouse brain membrane fraction (or cell lysates, not specified)
T1 sequence (Q8R2Y0 1-336): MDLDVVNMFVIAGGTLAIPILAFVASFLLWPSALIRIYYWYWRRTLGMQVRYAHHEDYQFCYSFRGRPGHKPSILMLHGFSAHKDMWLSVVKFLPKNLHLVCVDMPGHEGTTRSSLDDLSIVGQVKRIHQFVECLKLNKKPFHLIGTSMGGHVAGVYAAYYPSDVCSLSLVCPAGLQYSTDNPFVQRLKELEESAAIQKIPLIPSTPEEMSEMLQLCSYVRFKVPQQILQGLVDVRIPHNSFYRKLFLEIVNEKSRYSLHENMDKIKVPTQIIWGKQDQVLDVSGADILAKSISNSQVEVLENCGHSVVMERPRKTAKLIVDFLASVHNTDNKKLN
Procedure: (§1) In Vitro Competitive Activity-Based Protein Profiling.
(§2) Proteomes (mouse brain membrane fraction or cell lysates) (50 μL, 1.0 mg/mL total protein concentration) were preincubated with varying concentrations of inhibitors at 37° C. After 30 min, FP-Rh or HT-01 ([…], 50 μM in DMSO) was added and the mixture was incubated for another 30 min at 37° C. Reactions were quenched with SDS loading buffer (15 μL—4×) and run on SDS-PAGE. Following gel imaging, serine hydrolase activity was determined by measuring fluorescent intensity of gel bands corresponding to MAGL, ABHD6, FAAH, and PLA2G7 using ImageJ 1.43u software.

FAAH = molecular target: T2, FAAH (Mus musculus, UniProt O08914); conditions: for inhibition at 1 µM: 1 μM inhibitor, read-out: % Inhibition at 1 μM, B = FAAH; for inhibition at 10 µM: 10 μM inhibitor, read-out: % Inhibition at 10 μM, B = FAAH; for IC50: mouse brain membrane fraction or cell lysates, 30 min preincubation at 37° C., read-out: Mouse (IC50 value, nM) FAAH
T2 construct: Proteomes (mouse brain membrane fraction or cell lysates); from tissue; host or cells: mouse brain membrane fraction (or cell lysates, not specified)
T2 sequence (O08914 1-579): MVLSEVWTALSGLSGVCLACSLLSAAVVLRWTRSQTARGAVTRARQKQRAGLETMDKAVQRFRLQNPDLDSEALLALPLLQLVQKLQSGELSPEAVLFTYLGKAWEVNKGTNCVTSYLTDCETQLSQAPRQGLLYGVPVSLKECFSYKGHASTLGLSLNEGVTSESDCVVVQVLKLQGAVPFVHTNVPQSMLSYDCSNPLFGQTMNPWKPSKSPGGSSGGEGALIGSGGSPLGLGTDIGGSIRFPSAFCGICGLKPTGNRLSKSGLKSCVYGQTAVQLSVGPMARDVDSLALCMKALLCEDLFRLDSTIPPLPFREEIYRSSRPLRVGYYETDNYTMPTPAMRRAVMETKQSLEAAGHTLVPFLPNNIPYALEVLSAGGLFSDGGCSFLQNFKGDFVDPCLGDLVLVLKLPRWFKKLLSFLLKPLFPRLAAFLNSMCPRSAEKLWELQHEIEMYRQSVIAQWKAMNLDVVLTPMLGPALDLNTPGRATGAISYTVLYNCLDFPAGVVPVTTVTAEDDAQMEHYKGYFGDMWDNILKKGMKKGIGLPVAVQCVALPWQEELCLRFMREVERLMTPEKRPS
Procedure: as §1, §2

MAGL = molecular target: T3, MAGL (Mus musculus, UniProt O35678); conditions: for inhibition at 1 µM: 1 μM inhibitor; for inhibition at 10 µM: 10 μM inhibitor; for IC50: mouse brain membrane fraction or cell lysates, 30 min preincubation at 37° C., read-out: Mouse (IC50 value, nM) MAGL
T3 construct: Proteomes (mouse brain membrane fraction or cell lysates); from tissue; host or cells: mouse brain membrane fraction (or cell lysates, not specified)
T3 sequence (O35678 1-303): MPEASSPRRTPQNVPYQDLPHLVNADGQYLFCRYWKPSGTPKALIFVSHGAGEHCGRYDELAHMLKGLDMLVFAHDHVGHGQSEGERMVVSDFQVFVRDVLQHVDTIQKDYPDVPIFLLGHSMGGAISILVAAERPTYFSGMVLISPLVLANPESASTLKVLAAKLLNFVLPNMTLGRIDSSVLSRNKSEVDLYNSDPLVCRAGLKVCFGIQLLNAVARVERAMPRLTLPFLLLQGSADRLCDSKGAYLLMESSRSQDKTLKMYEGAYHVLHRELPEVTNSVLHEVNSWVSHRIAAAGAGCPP
Procedure: as §1, §2

PLA2G7 = molecular target: T4, PLA2G7 (Mus musculus, UniProt Q60963); conditions: for inhibition at 1 µM: 1 μM inhibitor, read-out: % Inhibition at 1 μM, D = PLA2G7
T4 construct: Proteomes (mouse brain membrane fraction or cell lysates); from tissue; host or cells: mouse brain membrane fraction (or cell lysates, not specified)
T4 sequence (Q60963 22-440): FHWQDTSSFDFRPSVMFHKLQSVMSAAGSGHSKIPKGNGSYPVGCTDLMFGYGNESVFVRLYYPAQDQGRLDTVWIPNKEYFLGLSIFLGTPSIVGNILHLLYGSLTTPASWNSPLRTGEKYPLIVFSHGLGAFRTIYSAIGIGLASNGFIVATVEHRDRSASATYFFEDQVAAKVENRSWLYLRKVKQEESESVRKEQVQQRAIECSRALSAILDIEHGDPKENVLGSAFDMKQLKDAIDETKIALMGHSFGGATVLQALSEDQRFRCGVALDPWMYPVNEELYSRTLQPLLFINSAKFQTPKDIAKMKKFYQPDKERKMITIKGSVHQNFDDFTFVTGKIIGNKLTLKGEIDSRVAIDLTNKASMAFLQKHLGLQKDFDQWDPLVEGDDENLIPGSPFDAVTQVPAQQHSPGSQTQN
Procedure: as §1, §2

Structure (SMILES)	inhibition at 1 µM (ABHD6) [%]	inhibition at 10 µM (ABHD6) [%]	inhibition at 1 µM (FAAH) [%]	inhibition at 10 µM (FAAH) [%]	inhibition at 1 µM (MAGL) [%]	inhibition at 10 µM (MAGL) [%]	IC50 (ABHD6) [nM]	IC50 (FAAH) [nM]	IC50 (MAGL) [nM]	also measured
N#Cc1cnn(C(=O)N2CCN(Cc3cccc(Oc4ccccc4)c3)CC2)c1 [Example 295, 1-(4-(3-Phenoxybenzyl)piperazine-1-carbonyl)-1H-pyrazole-4-carbonitrile]										inhibition at 1 µM (ABHD6; gel-based competitive ABPP): > 75%; inhibition at 1 µM (FAAH; gel-based competitive ABPP): > 75%; inhibition at 1 µM (MAGL; gel-based competitive ABPP): > 75%; inhibition at 1 µM (PLA2G7; gel-based competitive ABPP): < 25%
O=C(c1cnn(C(=O)N2CCN(Cc3ccc4c(c3)OCO4)CC2)c1)N1CCCCC1 [Example 69, (4-(Benzo[d][1,3]dioxol-5-ylmethyl)piperazin-1-yl)(4-(piperidine-1-carbonyl)-1H-pyrazol-1-yl)methanone]	> 75	> 75	> 75	> 75	25 to 75	> 75				inhibition at 1 µM (PLA2G7): > 75%; inhibition at 10 µM (PLA2G7; 10 μM inhibitor, read-out: % Inhibition at 10 μM, D = PLA2G7): > 75%
CN1CCCN(C(=O)n2cc(Cl)cn2)CC1 [Example 190, (4-Chloro-1H-pyrazol-1-yl)(4-methyl-1,4-diazepan-1-yl)methanone]		< 25		< 25		< 25				
O=C(N1CCCC1)n1cc(Cl)cn1 [Example 98, (4-Chloro-1H-pyrazol-1-yl)(pyrrolidin-1-yl)methanone]		< 25		> 75		25 to 75				
O=C(N1CCN(C(c2ccc(Cl)cc2)c2ccc(Cl)cc2)CC1)n1cccn1 [Example 46, (4-(Bis(4-chlorophenyl)methyl)piperazin-1-yl)(1H-pyrazol-1-yl)methanone]							> 1000	> 1000	< 100	
O=C(N1CCCCC1)n1cc(Cl)cn1 [Example 96, (4-Chloro-1H-pyrazol-1-yl)(piperidin-1-yl)methanone]		> 75		> 75		> 75				
Cc1cnn(C(=O)N(C)CCN(C)S(C)(=O)=O)c1 [Example 196, N,4-Dimethyl-N-(2-(N-methylmethylsulfonamido)ethyl)-1H-pyrazole-1-carboxamide]		< 25		< 25		< 25				
O=C(N1CCN(Cc2ccc(Cl)cc2N2CCCC2)CC1)n1cc(Cl)cn1 [Example 50, (4-Chloro-1H-pyrazol-1-yl)(4-(4-chloro-2-(pyrrolidin-1-yl)benzyl)piperazin-1-yl)methanone]							< 100	100 to 1000	< 100	
Cc1cnn(C(=O)N2CCN(C(c3ccc(Cl)cc3)c3ccc(Cl)cc3)CC2)c1 [Example 117, (4-(Bis(4-chlorophenyl)methyl)piperazin-1-yl)(4-methyl-1H-pyrazol-1-yl)methanone]	< 25	> 75	< 25	< 25	> 75	> 75	> 1000	> 1000	< 100	
O=C(NC1CC1)c1cnn(C(=O)N2CCN(C(c3ccc(Cl)cc3)c3ccc(Cl)cc3)CC2)c1 [Example 49, 1-(4-(Bis(4-chlorophenyl)methyl)piperazine-1-carbonyl)-N-cyclopropyl-1H-pyrazole-4-carboxamide]							100 to 1000	> 1000	100 to 1000	
O=C(N1CCOCC1)n1cc(Cl)cn1 [Example 97, (4-Chloro-1H-pyrazol-1-yl)(morpholino)methanone]		< 25		> 75		< 25				
O=C(N1CCN(Cc2ccc(C(F)(F)F)cc2N2CCCC2)CC1)n1cc(Cl)cn1 [Example 125, (4-Chloro-1H-pyrazol-1-yl)(4-(2-(pyrrolidin-1-yl)-4-(trifluoromethyl)benzyl)piperazin-1-yl)methanone]	> 75		< 25		> 75		100 to 1000	> 1000	< 100	
O=C(N1CCN(Cc2ccc(Cl)cc2N2CCOCC2)CC1)n1cc(Cl)cn1 [Example 47, (4-Chloro-1H-pyrazol-1-yl)(4-(4-chloro-2-morpholinobenzyl)piperazin-1-yl)methanone]							< 100	100 to 1000	< 100	
O=C(N1CCN(C(c2ccc(Cl)cc2)c2ccc(Cl)cc2)CC1)n1cc(-c2ccccc2)cn1 [Example 119, (4-(Bis(4-chlorophenyl)methyl)piperazin-1-yl)(4-phenyl-1H-pyrazol-1-yl)methanone]	< 25	> 75	< 25	< 25	25 to 75	> 75				
O=C(N1CCN(Cc2c(N3CCCC3)cccc2C(F)(F)F)CC1)n1cc(F)cn1 [Example 113, (4-Fluoro-1H-pyrazol-1-yl)(4-(2-(pyrrolidin-1-yl)-6-(trifluoromethyl)benzyl)piperazin-1-yl)methanone]	> 75	> 75	25 to 75	> 75	> 75	> 75	100 to 1000	> 1000	< 100	
O=C(c1cnn(C(=O)N2CCN(C(c3ccc(Cl)cc3)c3ccc(Cl)cc3)CC2)c1)N1CCCC1 [Example 48, (4-(Bis(4-chlorophenyl)methyl)piperazin-1-yl)(4-(pyrrolidine-1-carbonyl)-1H-pyrazol-1-yl)methanone]							100 to 1000	> 1000	100 to 1000	
O=C(N1CCN(Cc2ccc(Cl)cc2N2CCC3(CCOCC3)C2)CC1)n1cc(Cl)cn1 [Example 102, (4-Chloro-1H-pyrazol-1-yl)(4-(4-chloro-2-(8-oxa-2-azaspiro[4.5]decan-2-yl)benzyl)piperazin-1-yl)methanone]	> 75		< 25		> 75		< 100	> 1000	< 100	
